Patent US10189841B2, “Purinones as ubiquitin-specific protease 1 inhibitors” (Forma Therapeutics, Inc., priority 2015, dated 2019)

Target: USP1 (construct USP1 (I-785, GG670, 671AA)/UAF1 (I-677)-Flag) (Homo sapiens (Human), UniProt O94782, G670A/G671A)
Test: Ubiquitin-Rhodamine 110 assay for USP1 activity
Type: biochemical
Conditions: USP1/UAF1 25 pM, Ub-Rh110 25 nM, 30 min preincubation
Method in brief: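 Two formats with the USP1/UAF1 complex and 25 nM ubiquitin-rhodamine 110 in pH 8.0 Tris buffer with calcium, glutathione and detergent. Single-point screening used 10 µM, 100 pM enzyme and 45 min. Inhibition was set against no-enzyme and DMSO wells.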

USP1 (construct USP1 (I-785, GG670, 671AA)/UAF1 (I-677)-Flag), sequence (O94782 whole entry G670A/G671A): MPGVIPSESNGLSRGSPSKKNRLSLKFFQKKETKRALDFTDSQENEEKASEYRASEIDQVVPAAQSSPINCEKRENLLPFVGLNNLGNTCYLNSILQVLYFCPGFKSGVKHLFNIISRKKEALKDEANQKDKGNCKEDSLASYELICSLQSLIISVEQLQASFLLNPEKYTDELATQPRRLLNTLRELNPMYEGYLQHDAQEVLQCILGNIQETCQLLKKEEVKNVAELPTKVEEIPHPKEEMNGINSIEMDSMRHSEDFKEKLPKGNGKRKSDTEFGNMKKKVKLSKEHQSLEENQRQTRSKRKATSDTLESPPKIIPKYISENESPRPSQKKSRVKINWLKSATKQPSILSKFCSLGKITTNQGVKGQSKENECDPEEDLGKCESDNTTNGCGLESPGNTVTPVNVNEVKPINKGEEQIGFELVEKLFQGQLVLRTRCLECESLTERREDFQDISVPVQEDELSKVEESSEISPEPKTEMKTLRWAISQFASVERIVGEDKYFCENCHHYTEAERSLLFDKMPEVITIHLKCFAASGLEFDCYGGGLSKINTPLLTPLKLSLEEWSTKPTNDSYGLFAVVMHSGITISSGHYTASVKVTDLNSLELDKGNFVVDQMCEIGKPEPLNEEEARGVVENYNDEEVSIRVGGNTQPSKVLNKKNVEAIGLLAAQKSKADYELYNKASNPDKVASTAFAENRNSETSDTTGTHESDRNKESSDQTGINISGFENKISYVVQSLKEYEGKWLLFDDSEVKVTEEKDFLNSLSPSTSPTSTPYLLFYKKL
USP1 (construct USP1 (I-785, GG670, 671AA)/UAF1 (I-677)-Flag), sequence (Q8TAF3 whole entry partner): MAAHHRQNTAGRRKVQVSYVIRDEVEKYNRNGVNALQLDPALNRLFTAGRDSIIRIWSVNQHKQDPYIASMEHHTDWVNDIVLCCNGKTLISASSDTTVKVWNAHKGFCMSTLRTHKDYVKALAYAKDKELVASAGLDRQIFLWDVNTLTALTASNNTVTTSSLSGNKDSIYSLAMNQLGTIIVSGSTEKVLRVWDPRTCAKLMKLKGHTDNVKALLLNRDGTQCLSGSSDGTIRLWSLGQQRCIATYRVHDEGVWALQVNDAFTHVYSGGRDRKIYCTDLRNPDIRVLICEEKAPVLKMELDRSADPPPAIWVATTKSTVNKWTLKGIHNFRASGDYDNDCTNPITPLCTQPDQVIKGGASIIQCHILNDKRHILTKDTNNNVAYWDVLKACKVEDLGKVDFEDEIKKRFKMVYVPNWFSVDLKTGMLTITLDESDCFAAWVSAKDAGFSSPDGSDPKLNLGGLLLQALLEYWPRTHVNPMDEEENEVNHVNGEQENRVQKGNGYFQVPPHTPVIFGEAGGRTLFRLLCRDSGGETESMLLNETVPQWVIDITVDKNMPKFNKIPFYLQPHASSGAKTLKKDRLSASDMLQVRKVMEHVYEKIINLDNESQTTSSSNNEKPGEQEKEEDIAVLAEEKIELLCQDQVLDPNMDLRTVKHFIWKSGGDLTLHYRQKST

| Compound | IC50 |
| --- | --- |
| CC(C)c1ccccc1-c1ncc2[nH]c(=O)n(Cc3ccc(-n4cc(CCO)nn4)cc3)c2n1 [Compound I-342, 9-(4-(4-(2-hydroxyethyl)-1H-1,2,3-triazol-1-yl)benzyl)-2-(2-isopropylphenyl)-7,9-dihydro-8H-purin-8-one] | 200 to 2000 nM |
| CC(C)c1ccccc1-c1ncc2[nH]c(=O)n(Cc3ccc(-n4cc(C5CC5)nn4)cc3)c2n1 [Compound I-343, 9-(4-(4-cyclopropyl-1H-1,2,3-triazol-1-yl)benzyl)-2-(2-isopropylphenyl)-7,9-dihydro-8H-purin-8-one] | 50 to 200 nM |
| COCc1cn(-c2ccc(Cn3c(=O)[nH]c4cnc(-c5ccccc5C(C)C)nc43)cc2)nn1 [Compound I-344, 2-(2-isopropylphenyl)-9-(4-(4-(methoxymethyl)-1H-1,2,3-triazol-1-yl)benzyl)-7,9-dihydro-8H-purin-8-one] | 200 to 2000 nM |
| CC(C)c1ccccc1-c1ncc2[nH]c(=O)n(Cc3ccc(-n4cc(C(C)(C)O)nn4)cc3)c2n1 [Compound I-345, 9-(4-(4-(2-hydroxypropan-2-yl)-1H-1,2,3-triazol-1-yl)benzyl)-2-(2-isopropylphenyl)-7,9-dihydro-8H-purin-8-one] | 200 to 2000 nM |
| CCN(CC)Cc1cn(-c2ccc(Cn3c(=O)[nH]c4cnc(-c5ccccc5C(C)C)nc43)cc2)nn1 [Compound I-346, 9-(4-(4-((diethylamino)methyl)-1H-1,2,3-triazol-1-yl)benzyl)-2-(2-isopropylphenyl)-7,9-dihydro-8H-purin-8-one] | > 2000 nM |
| CC(C)c1ccccc1-c1ncc2[nH]c(=O)n(Cc3ccc(-n4cc([C@@H](C)O)nn4)cc3)c2n1 [Compound I-347, (R)-9-(4-(4-(1-hydroxyethyl)-1H-1,2,3-triazol-1-yl)benzyl)-2-(2-isopropylphenyl)-7,9-dihydro-8H-purin-8-one] | > 2000 nM |
| CCC(N)(CC)c1cn(-c2ccc(Cn3c(=O)[nH]c4cnc(-c5ccccc5C(C)C)nc43)cc2)nn1 [Compound I-348, 9-(4-(4-(3-aminopentan-3-yl)-1H-1,2,3-triazol-1-yl)benzyl)-2-(2-isopropylphenyl)-7,9-dihydro-8H-purin-8-one] | > 2000 nM |
| CC(C)c1ccccc1-c1ncc2[nH]c(=O)n(Cc3ccc(-n4cc(-c5ccccn5)nn4)cc3)c2n1 [Compound I-349, 2-(2-isopropylphenyl)-9-(4-(4-(pyridin-2-yl)-1H-1,2,3-triazol-1-yl)benzyl)-7,9-dihydro-8H-purin-8-one] | 200 to 2000 nM |
| CC(C)c1ccccc1-c1ncc2[nH]c(=O)n(Cc3ccc(-n4cc(CS(C)(=O)=O)nn4)cc3)c2n1 [Compound I-350, 2-(2-isopropylphenyl)-9-(4-(4-((methylsulfonyl)methyl)-1H-1,2,3-triazol-1-yl)benzyl)-7,9-dihydro-8H-purin-8-one] | > 2000 nM |
| CNC(=O)c1ccc(Cn2c(=O)[nH]c3cnc(-c4ccccc4C(C)C)nc32)cc1 [Compound I-351, 4-((2-(2-isopropylphenyl)-8-oxo-7,8-dihydro-9H-purin-9-yl)methyl)-N-methylbenzamide] | 50 to 200 nM |
| COCCNC(=O)c1ccc(Cn2c(=O)[nH]c3cnc(-c4ccccc4C(C)C)nc32)cc1 [Compound I-352, 4-((2-(2-isopropylphenyl)-8-oxo-7,8-dihydro-9H-purin-9-yl)methyl)-N-(2-methoxyethyl)benzamide] | 200 to 2000 nM |
| CC(C)c1ccccc1-c1ncc2[nH]c(=O)n(Cc3ccc(C(=O)NC4CC4)cc3)c2n1 [Compound I-353, N-cyclopropyl-4-((2-(2-isopropylphenyl)-8-oxo-7,8-dihydro-9H-purin-9-yl)methyl)benzamide] | 50 to 200 nM |
| CC(C)c1ccccc1-c1ncc2[nH]c(=O)n(Cc3ccc(C(=O)NCc4ccc(F)cc4)cc3)c2n1 [Compound I-354, N-(4-fluorobenzyl)-4-((2-(2-isopropylphenyl)-8-oxo-7,8-dihydro-9H-purin-9-yl)methyl)benzamide] | 50 to 200 nM |
| CC(C)c1ccccc1-c1ncc2[nH]c(=O)n(Cc3ccc(C(=O)N(C)C)cc3)c2n1 [Compound I-355, 4-((2-(2-isopropylphenyl)-8-oxo-7,8-dihydro-9H-purin-9-yl)methyl)-N,N-dimethylbenzamide] | < 50 nM |
| CC(C)NC(=O)c1ccc(Cn2c(=O)[nH]c3cnc(-c4ccccc4C(C)C)nc32)cc1 [Compound I-356, N-isopropyl-4-((2-(2-isopropylphenyl)-8-oxo-7,8-dihydro-9H-purin-9-yl)methyl)benzamide] | < 50 nM |
| CC(C)CNC(=O)c1ccc(Cn2c(=O)[nH]c3cnc(-c4ccccc4C(C)C)nc32)cc1 [Compound I-357, N-isobutyl-4-((2-(2-isopropylphenyl)-8-oxo-7,8-dihydro-9H-purin-9-yl)methyl)benzamide] | 50 to 200 nM |
| CC(C)c1ccccc1-c1ncc2[nH]c(=O)n(Cc3ccc(C(=O)NC4CCCC4)cc3)c2n1 [Compound I-358, N-cyclopentyl-4-((2-(2-isopropylphenyl)-8-oxo-7,8-dihydro-9H-purin-9-yl)methyl)benzamide] | 50 to 200 nM |

| Compound | IC50 |
| --- | --- |
| CC(C)c1ccccc1-c1ncc2[nH]c(=O)n(Cc3ccc(C(=O)NC4(c5ccccc5)CCCC4)cc3)c2n1 [Compound I-359, 4-((2-(2-isopropylphenyl)-8-oxo-7,8-dihydro-9H-purin-9-yl)methyl)-N-(1-phenylcyclopentyl)benzamide] | 50 to 200 nM |
| CC(C)c1ccccc1-c1ncc2[nH]c(=O)n(Cc3ccc(C(=O)NCc4nccn4C)cc3)c2n1 [Compound I-360, 4-((2-(2-isopropylphenyl)-8-oxo-7,8-dihydro-9H-purin-9-yl)methyl)-N-((1-methyl-1H-imidazol-2-yl)methyl)benzamide] | 200 to 2000 nM |
| CC(C)c1ccccc1-c1ncc2[nH]c(=O)n(Cc3ccc(C(=O)NCc4cnn(C)c4)cc3)c2n1 [Compound I-361, 4-((2-(2-isopropylphenyl)-8-oxo-7,8-dihydro-9H-purin-9-yl)methyl)-N-((1-methyl-1H-pyrazol-4-yl)methyl)benzamide] | 200 to 2000 nM |
| CCN(CC)C(=O)c1ccc(Cn2c(=O)[nH]c3cnc(-c4ccccc4C(C)C)nc32)cc1 [Compound I-362, N,N-diethyl-4-((2-(2-isopropylphenyl)-8-oxo-7,8-dihydro-9H-purin-9-yl)methyl)benzamide] | < 50 nM |
| CC(C)c1ccccc1-c1ncc2[nH]c(=O)n(Cc3ccc(C(=O)N4CCOCC4)cc3)c2n1 [Compound I-363, 2-(2-isopropylphenyl)-9-(4-(morpholine-4-carbonyl)benzyl)-7,9-dihydro-8H-purin-8-one] | 50 to 200 nM |
| CC(C)c1ccccc1-c1ncc2[nH]c(=O)n(Cc3ccc(C(=O)N(C)C4CCCCC4)cc3)c2n1 [Compound I-364, N-cyclohexyl-4-((2-(2-isopropylphenyl)-8-oxo-7,8-dihydro-9H-purin-9-yl)methyl)-N-methylbenzamide] | < 50 nM |
| CC(C)c1ccccc1-c1ncc2[nH]c(=O)n(Cc3ccc(C(=O)N(C)Cc4ccc(F)cc4)cc3)c2n1 [Compound I-365, N-(4-fluorobenzyl)-4-((2-(2-isopropylphenyl)-8-oxo-7,8-dihydro-9H-purin-9-yl)methyl)-N-methylbenzamide] | 50 to 200 nM |
| CC1CCN(C(=O)c2ccc(Cn3c(=O)[nH]c4cnc(-c5ccccc5C(C)C)nc43)cc2)CC1 [Compound I-366, 2-(2-isopropylphenyl)-9-(4-(4-methylpiperidine-1-carbonyl)benzyl)-7,9-dihydro-8H-purin-8-one] | 50 to 200 nM |
| CC(C)c1ccccc1-c1ncc2[nH]c(=O)n(Cc3ccc(C(=O)N(C)C4CCOCC4)cc3)c2n1 [Compound I-367, 4-((2-(2-isopropylphenyl)-8-oxo-7,8-dihydro-9H-purin-9-yl)methyl)-N-methyl-N-(tetrahydro-2H-pyran-4-yl)benzamide] | 50 to 200 nM |
| COCC1CCCN(C(=O)c2ccc(Cn3c(=O)[nH]c4cnc(-c5ccccc5C(C)C)nc43)cc2)C1 (stereo not drawn) [Compound I-368, 2-(2-isopropylphenyl)-9-(4-(3-(methoxymethyl)piperidine-1-carbonyl)benzyl)-7,9-dihydro-8H-purin-8-one] | 50 to 200 nM |
| CC(C)c1ccccc1-c1ncc2[nH]c(=O)n(Cc3ccc(C(=O)N4CCC[C@H]4C)cc3)c2n1 [Compound I-369, (R)-2-(2-isopropylphenyl)-9-(4-(2-methylpyrrolidine-1-carbonyl)benzyl)-7,9-dihydro-8H-purin-8-one] | < 50 nM |
| COCCN(C(=O)c1ccc(Cn2c(=O)[nH]c3cnc(-c4ccccc4C(C)C)nc32)cc1)C(C)C [Compound I-370, N-isopropyl-4-((2-(2-isopropylphenyl)-8-oxo-7,8-dihydro-9H-purin-9-yl)methyl)-N-(2-methoxyethyl)benzamide] | 50 to 200 nM |
| Cc1nc(CN(C)C(=O)c2ccc(Cn3c(=O)[nH]c4cnc(-c5ccccc5C(C)C)nc43)cc2)cs1 [Compound I-371, 4-((2-(2-isopropylphenyl)-8-oxo-7,8-dihydro-9H-purin-9-yl)methyl)-N-methyl-N-((2-methylthiazol-4-yl)methyl)benzamide] | 50 to 200 nM |
| CC(C)c1ccccc1-c1ncc2[nH]c(=O)n(Cc3ccc(C(=O)Nc4nccn4C)cc3)c2n1 [Compound I-372, 4-((2-(2-isopropylphenyl)-8-oxo-7,8-dihydro-9H-purin-9-yl)methyl)-N-(1-methyl-1H-imidazol-2-yl)benzamide] | 50 to 200 nM |
| CCN(C)C(=O)c1ccc(Cn2c(=O)[nH]c3cnc(-c4ccccc4C(C)C)nc32)cc1 [Compound I-373, N-ethyl-4-((2-(2-isopropylphenyl)-8-oxo-7,8-dihydro-9H-purin-9-yl)methyl)-N-methylbenzamide] | < 50 nM |
| CCCN(C)C(=O)c1ccc(Cn2c(=O)[nH]c3cnc(-c4ccccc4C(C)C)nc32)cc1 [Compound I-374, 4-((2-(2-isopropylphenyl)-8-oxo-7,8-dihydro-9H-purin-9-yl)methyl)-N-methyl-N-propylbenzamide] | < 50 nM |
